Results on 3 compounds are retold here after patent publication US8404727B2, “Pharmaceutical composition that includes a dipeptidyl peptidase-IV inhibitor” (Glenmark Pharmaceuticals S.A., priority 2009, dated 2013).

Structures are written as SMILES. Structures can show the parent of a compound that is named as a salt.

A short description of series [1]: Compatibility study of melogliptin mesylate with various excipients: related substances (RS) by HPLC. Type of series: physicochemical. Conditions: sealed glass vial. The text has this: Melogliptin Mesylate was Subjected for Compatibility Studies in Solid State Condition with Dry Mixing Technique Using the Following Protocol:
Melogliptin mesylate and various excipients in predetermined w/w ratios were mixed geometrically. Melogliptin mesylate to excipients ratios were selected based on the excipients concentration expected to be used during the development of the formulation. The placebo of each excipient used was kept on respective stability conditions as control.
The samples were stored in glass vials. The vials were closed with rubber stoppers and sealed with aluminum seals, and kept in upright position.
The vials were stored at three storage conditions: 25° C., 30° C. and 40° C.
The samples were analyzed initially, then followed by the end of 1 week, 2 weeks and 4 weeks time periods for related substances (RS), as monitored by HPLC and differential scanning calorimetry (DSC), to study the interaction between melogliptin and various excipients.
The compatibility data in terms of RS generated initially and upon 4 weeks (“4 W”) storage at about 40° C. of various samples are tabulated below.
Brief Analytical Method for Determination of RS in Melogliptin Mesylate:
A reversed-phase gradient HPLC method was developed. The analysis was performed using C18 HPLC column (Phenomenex Gemini 110 A, C-18, 50×4.6 mm, 3 μm). The mobile phase was a gradient mixture of a solution of 1.26 g of ammonium formate in 1000 ml of purified water adjusted to pH 8.4 using 25% v/v ammonia solution (Mobile Phase A) and a solution of 1.26 g of ammonium formate in a mixture of purified water (800 ml) and acetonitrile (200 ml) adjusted to pH 8.4 using 25% v/v ammonia solution (Mobile Phase B). The gradient program is provided below. The flow rate was 1.0 ml/min; injection volume 20 μl; and column temperature was 25° C. Suitable dilutions of the placebo, standard and test samples were injected in the column. Areas for impurity A (eluted at the relative retention time of 0.51) and total RS in the chromatogram were integrated, and accordingly the contents of impurity A and total RS were determined.

Setting [2] is: 4 weeks storage at about 40° C.
[3] abbreviates: dry mix of melogliptin mesylate with excipient, initial.

As usually defined, the melting point is the temperature of the solid-liquid transition.

In the case of `N=C1[C@@H]2C[C@H](F)CN2C(=O)CN1[C@@H]1CC[C@H](Cn2cncn2)C1` (stereo in doubt) (as salt: mesylate) [impurity A, 7-fluoro-1-imino-2-[3-(1H-1,2,4-triazol-1-ylmethyl)cyclopentyl] hexahydropyrrolo[1,2-a]pyrazin-4(1H)-one mesylate], the melting point is 150 to 160 °C.
The same measure, in the same setting: in the case of `N=C1[C@@H]2C[C@H](F)CN2C(=O)CN1[C@@H]1CC[C@H](Cn2cncn2)C1` (stereo in doubt) [Example 11, 7-fluoro-1-imino-2-[3-(1H-1,2,4-triazol-1-ylmethyl)cyclopentyl] hexahydropyrrolo[1,2-a]pyrazin-4(1H)-one] it was 158 to 162 °C.
Consider `N#C[C@@H]1C[C@H](F)CN1C(=O)CN[C@@H]1CC[C@H](Cn2cncn2)C1` [Melogliptin mesylate, (2S,4S)-1-{2-[(3S,1R)-3-(1H-1,2,4-triazol-1-ylmethyl)cyclopentylamino]acetyl}-4-fluoropyrrolidine-2-carbonitrile], for which, in series [1] (setting [2]), the “RS by HPLC, Impurity A, 4 W” value is 0.05 % w/w and the “RS by HPLC, Total RS, 4 W” value stood at 0.13 % w/w. Besides, in series [1] (setting [3]), the “RS by HPLC, Impurity A, Initial” value was 0.02 % w/w and the “RS by HPLC, Total RS, Initial” value is 0.12 % w/w.
